Data from US20110009421A1, “COMPOUND HAVING 6-MEMBERED AROMATIC RING” (TAKEDA PHARMACEUTICAL COMPANY LIMITED, priority 2008, published 2011).

biological target: T1, human GPR52 (Homo sapiens, UniProt Q9Y2T5); test: Increased intracellular cAMP levels in human GPR52 expression CHO cells (AlphaScreen cAMP assay); format: cell-based; conditions: 1 μM test compound, 30 min at 37° C., human GPR52 expression CHO (dhfr−) cells; intracellular cAMP level, 100% = 1 μM 3-(6-(2-(3,4-dimethoxyphenyl)ethoxy)pyridin-2-yl)-N-(2-pyrrolidin-1-ylethyl)benzamide, 0% = DMSO
T1 construct: expressed in transfected cells; host or cells: CHO (dhfr-) cells
T1 sequence (Q9Y2T5 whole entry): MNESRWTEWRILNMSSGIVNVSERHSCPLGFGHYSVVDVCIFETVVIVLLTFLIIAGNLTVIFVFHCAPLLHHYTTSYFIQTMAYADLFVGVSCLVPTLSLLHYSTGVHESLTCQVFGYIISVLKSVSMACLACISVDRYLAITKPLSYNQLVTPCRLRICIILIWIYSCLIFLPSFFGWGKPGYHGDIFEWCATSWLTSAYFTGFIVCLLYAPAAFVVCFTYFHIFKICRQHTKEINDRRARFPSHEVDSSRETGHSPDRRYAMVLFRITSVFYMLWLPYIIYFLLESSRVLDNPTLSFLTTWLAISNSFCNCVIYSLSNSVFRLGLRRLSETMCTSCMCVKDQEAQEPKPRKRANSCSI
Method: Increased Intracellular cAMP Levels in Human GPR52 Expression CHO Cells
1×10^4 human GPR52 expression CHO (dhfr−) cells were incubated with 1 μM test compound for 30 min at 37° C. in 30 μL assay buffer (HBSS (containing Ca^2+ and Mg^2+), 0.5% BSA, 100 μM IBMX, 100 μM Ro 20-1724, 5 mM HEPES (pH 7.55)) using an OptiPlate-384 (by PerkinElmer). The intracellular cAMP level was then assayed with an EnVision (by PerkinElmer) according to the protocol of the AlphaScreen cAMP Assay Kit (by PerkinElmer). The GPR52 agonist activity was calculated, assuming the intracellular cAMP level to be 100% in the presence of 1 μM of 3-(6-(2-(3,4-dimethoxyphenyl)ethoxy)pyridin-2-yl)-N-(2-pyrrolidin-1-ylethyl)benzamide obtained in Reference Example 39 and assuming the intracellular cAMP level to be 0% when DMSO was added instead of test compound.

Compared with `COc1ccc(CCNc2nccc(-n3ccc4cc(C(=O)NCCN(C)C)ccc43)n2)cc1OC` [Working Example 102, 1-(2-((2-(3,4-Dimethoxyphenyl)ethyl)amino)pyrimidin-4-yl)-N-(2-(dimethylamino)ethyl)-1H-indole-5-carboxamide], `COc1ccc(CCNc2nccc(-c3cccc(C(=O)NCCN4CCCC4)c3)n2)cc1OC` [Working Example 141] is higher in “GPR52 agonist activity (%)” value: 89% for the first, 113% for the second.

Compared with `N#CCCNC(=O)c1cc(-c2cccc(Oc3ccc(Cl)cc3Cl)n2)ccc1F` [Working Example 113, N-(2-cyanoethyl)-5-(6-(2,4-dichlorophenoxy)pyridin-2-yl)-2-fluorobenzamide], `N#CCCNC(=O)c1cccc(-c2cccc(Oc3cc(Cl)cc(Cl)c3)n2)c1` [Working Example 121, N-(2-Cyanoethyl)-3-(6-(3,5-dichlorophenoxy)pyridin-2-yl)benzamide] is lower in “GPR52 agonist activity (%)” value: 77% for the first, 51% for the second.

Compared with `N#CCCNC(=O)c1cccc(-c2cccc(Oc3cccc(Cl)c3)n2)c1` [Working Example 125, 3-(6-(3-Chlorophenoxy)pyridin-2-yl)-N-(2-cyanoethyl)benzamide], `N#CCCNC(=O)c1cccc(-c2cccc(Oc3cncc(Cl)c3)n2)c1` [Working Example 134, 3-(6-((5-Chloropyridin-3-yl)oxy)pyridin-2-yl)-N-(2-cyanoethyl)benzamide] is lower in “GPR52 agonist activity (%)” value: 55% for the first, 48% for the second.

Compared with `COc1ccccc1CCNc1nccc(-c2cccc(C(=O)NCCN3CCCC3)c2)n1` [Working Example 138], `COc1cc(CCNc2nccc(-c3cccc(C(=O)NCCN4CCCC4)c3)n2)ccc1F` [Working Example 166] is higher in “GPR52 agonist activity (%)” value: 104% for the first, 109% for the second.

First: O=C(NCCN1CCCC1)c1cccc(-c2ccnc(NCCc3cccc(F)c3)n2)c1 [Working Example 143]
Second: O=C(NCCN1CCCC1)c1cccc(-c2ccnc(NCCc3cccc(C(F)(F)F)c3)n2)c1 [Working Example 146, N-(2-pyrrolidin-1-ylethyl)-3-[2-({2-[3-(trifluoromethyl)phenyl]ethyl}amino)pyrimidin-4-yl]benzamide]
The “GPR52 agonist activity (%)” value of the first is lower: 72% for the first, 135% for the second.

Compared with `O=C(NCCN1CCCC1)c1cccc(-c2ccnc(NCCc3cccs3)n2)c1` [Working Example 152], `O=C(NCCN1CCCC1)c1cccc(-c2ccnc(NCCc3ccc(F)c(Cl)c3)n2)c1` [Working Example 164] is higher in “GPR52 agonist activity (%)” value: 64% for the first, 107% for the second.

Going from `O=C(NCCN1CCCC1)c1cccc(-c2ccnc(NCCc3ccc(Cl)c(F)c3)n2)c1` [Working Example 165] to `COc1ccc(CCOc2cccc(-c3cccc(C(=O)NCCc4ccncc4)c3)n2)cc1OC` [Working Example 201], the “GPR52 agonist activity (%)” value rises from 68% to 85%.

First: CNC(=O)c1cccc(-c2cccc(OCCc3ccc(OC)c(OC)c3)n2)c1 [Working Example 167]
Second: COc1ccc(CCOc2cccc(-c3cccc(C(=O)NCCCO)c3)n2)cc1OC [Working Example 170]
The “GPR52 agonist activity (%)” value of the first is lower: 68% for the first, 79% for the second.

Going from `COc1ccc(CCOc2cccc(-c3cccc(C(=O)NCCC(N)=O)c3)n2)cc1OC` [Working Example 175] to `COc1ccc(CCOc2cccc(-c3cccc(C(=O)NCCCn4ccnc4)c3)n2)cc1OC` [Working Example 203], the “GPR52 agonist activity (%)” value falls from 110% to 97%.

Compared with `COc1ccc(CCOc2cccc(-c3cccc(C(=O)NCCNc4ccccc4)c3)n2)cc1OC` [Working Example 208], `COc1ccc(CCOc2cccc(-c3cccc(C(=O)Nc4ccccn4)c3)n2)cc1OC` [Working Example 219] is higher in “GPR52 agonist activity (%)” value: 67% for the first, 94% for the second.

Compared with `COc1ccc(CCOc2cccc(-c3cccc(C(=O)Nc4ccc5ncccc5c4)c3)n2)cc1OC` [Working Example 227], `COc1ccc(CCOc2cccc(-c3cccc(NC(=O)Cn4ccnc4)c3)n2)cc1OC` [Working Example 302] is lower in “GPR52 agonist activity (%)” value: 65% for the first, 57% for the second.

Compared with `COc1ccc(CCOc2cccc(-c3cccc(NC(=O)[C@@H]4CSC(=O)N4)c3)n2)cc1OC` [Working Example 245], `COc1ccc(CCOc2cccc(-c3cccc(NC(=O)CC4NCCc5ccccc54)c3)n2)cc1OC` (stereo not drawn) [Working Example 318] is higher in “GPR52 agonist activity (%)” value: 58% for the first, 82% for the second.
